A short description of data set [1]: Pharmacokinetic Determination (Mouse PK). The class given is in vivo, female CD-1 mice. To be noted: female; for Kp at 2 h: CD-1, PO 10.0 mg/kg, Brain concentration vs plasma concentration at 2 hours post dosing, read-out: B/P ratio; for AUC(0-t) / clearance / half-life / Vd / bioavailability / Cmax / Tmax: CD-1, plasma; for Vd: read-out: Vdss; for bioavailability: PO 10.0 mg/kg vs IV 3.0 mg/kg. The procedure: Pharmacokinetic Determination
Grouping female CD-1 mice weighing 20-30 g randomly to three groups; one group was administered with test compound at a dose of 3.0 mg/kg by intravenous injection, the other two groups were administered with test compound at a dose of 10.0 mg/kg by oral. The formulation for IV groups is DMSO/PEG400/30% HP-β-CD (5/20/75) and the formulation for PO groups is 25% HP-β-CD in 25 mM citrate buffer (pH3.0). After administering, blood samples of intravenous injection group were collected at time points of predose, 0.0833, 0.25, 0.5, 1, 2, 4, 8, 12 and 24 h; blood samples of oral group were collected at time points of predose, 0.25, 0.5, 1, 2, 4, 8, 12, and 24 h. Both blood samples and brain samples were collected at 2 hours post dosing for the second PO group. Standard curve was plotted based on concentrations of the samples in a suitable range, the concentrations of test compounds in plasma samples and brain samples were determined by using LC-MS/MS. Pharmacokinetic parameters were calculated according to drug concentration-time curve using a noncompartmental method by WinNonLin (Phoenix™, version 6.1) or other similar software.

The subject of data set [2] is MCF7. As to the kind of experiment: Breast Cancer Cell Proliferation Assay (MCF-7), Cell Titer-Glo. Format: cell-based. To be noted: Homo sapiens, MCF7 cells, 5 days of compound exposure. Summed up:
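MCF7 cells in phenol red-free DMEM/F12 with charcoal-stripped FBS exposed 5 days to 10-point dilutions (10–0.000005 μM final), 17β-estradiol as control. Viability by CellTiter-Glo luminescence, background-subtracted and expressed relative to estrogen-only treated cells; day-1 pretreatment wells plated.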

With `C[C@@H]1Cc2c([nH]c3ccccc23)[C@@H](c2ccc(NC3CN(CCCF)C3)cn2)N1C12CC(C1)C2` [Compound 2, 6-((1S,3R)-2-(bicyclo[1.1.1]pentan-1-yl)-3-methyl-2,3,4,9-tetrahydro-1H-pyrido[3,4-b]indol-1-yl)-N-(1-(3-fluoropropyl)azetidin-3-yl)pyridin-3-amine], in data set [1], the Kp at 2 h is 2.87 and the bioavailability turned out to be 43.3%. In data set [1] (IV, 3.0 mg/kg), the exposure AUC(0-t) came out at 1.74 µM·h, the clearance worked out at 55.8 mL/min/kg, the half-life is 8.78 h and the Vd worked out at 31.9 L/kg. Moreover, in data set [1] (PO, 10.0 mg/kg), the AUC(0-t) is 2.51 µM·h, the Cmax came to 358 nM, the Tmax came out at 1 h and the half-life was 7.23 h. The same compound yielded a concentration for half-maximal inhibition (IC50) in data set [2] (120 h) of at most 25 nM.

Turning to `C[C@@H]1Cc2c([nH]c3ccccc23)[C@@H](c2c(F)cc(N[C@H]3CCN(CCCF)C3)cc2F)N1C12CC(C1)C2` [Compound 19, (S)—N-(4-((1R,3R)-2-(bicyclo[1.1.1]pentan-1-yl)-3-methyl-2,3,4,9-tetrahydro-1H-pyrido[3,4-b]indol-1-yl)-3,5-difluorophenyl)-1-(3-fluoropropyl)pyrrolidin-3-amine], in data set [1], the Kp at 2 h is 12.3 and the bioavailability turned out to be 69.8%. In addition, in data set [1] (IV, 3.0 mg/kg), the AUC(0-t) came out at 2.15 µM·h, the clearance stood at 47.6 mL/min/kg, the half-life is 6.58 h and the Vd was found to be 23.2 L/kg. In data set [1] (PO, 10.0 mg/kg), the AUC(0-t) was 5 µM·h, the highest concentration (Cmax) turned out to be 440 nM, the time of peak concentration (Tmax) was found to be 1 h and the half-life was 8.5 h. The same compound yielded a half-maximal inhibitory concentration (IC50) in data set [2] (MCF7, 120 h) of at most 25 nM.

Consider `C[C@@H]1Cc2c(ccc3[nH]ncc23)[C@@H](c2ccc(NC3CN(CCCF)C3)cn2)N1CC(F)(F)F` [AZD9833, reference compound], for which the Kp at 2 h in data set [1] was 0.23. In data set [1] (PO, 10.0 mg/kg), the exposure AUC(0-t) was determined as 4.19 µM·h, the concentration peaked (Cmax) at 649 nM, the Tmax worked out at 2 h and the half-life is 2.34 h. Also, in data set [2] (MCF7, 120 h), the half-inhibitory concentration (IC50) was at most 25 nM.

Take `C[C@@H]1Cc2c([nH]c3ccccc23)[C@@H](c2c(F)cc(NC3CN(CCCF)C3)cc2F)N1C12CC(C1)C2` [Compound 1, N-(4-((1R,3R)-2-(bicyclo[1.1.1]pentan-1-yl)-3-methyl-2,3,4,9-tetrahydro-1H-pyrido[3,4-b]indol-1-yl)-3,5-difluorophenyl)-1-(3-fluoropropyl)azetidin-3-amine]: in data set [1], the Kp at 2 h worked out at 11 and the bioavailability came out at 52.4%. Besides, in data set [1] (IV, 3.0 mg/kg), the area under the curve AUC(0-t) stood at 2.79 µM·h, the clearance was 24.2 mL/min/kg, the half-life is 18 h and the Vd is 31.9 L/kg. Further, in data set [1] (PO, 10.0 mg/kg), the AUC(0-t) is 4.88 µM·h, the highest level (Cmax) was 466 nM, the Tmax came to 2 h and the half-life is 10.5 h. This compound also returned a 50% inhibitory concentration (IC50) in data set [2] (120 h) of at most 25 nM.

Consider `C[C@@H]1Cc2c([nH]c3ccccc23)[C@@H](c2ccc(NC3CN(CCCF)C3)nc2)N1C12CC(C1)C2` [Compound 21, 5-((1R,3R)-2-(bicyclo[1.1.1]pentan-1-yl)-3-methyl-2,3,4,9-tetrahydro-1H-pyrido[3,4-b]indol-1-yl)-N-(1-(3-fluoropropyl)azetidin-3-yl)pyridin-2-amine], for which the AUC(0-t) in data set [1] (IV, 3.0 mg/kg) amounted to 0.59 µM·h. The bioavailability in data set [1] was determined as 5.03%. Also, in data set [1] (PO, 10.0 mg/kg), the AUC(0-t) was 0.1 µM·h, the peak level (Cmax) was 60 nM, the Tmax worked out at 0.25 h and the half-life was 1.01 h. This compound returned an IC50 in data set [2] (MCF7, 120 h) above 250 nM.

For `C[C@@H]1Cc2c([nH]c3ccccc23)[C@@H](c2ccc(NC3CN(CCCF)C3)cc2)N1C12CC(CO)(C1)C2` (single isomer, unassigned) [Compound 58], in data set [1] (IV, 3.0 mg/kg), the exposure AUC(0-t) came out at 1.04 µM·h, the clearance came to 92 mL/min/kg, the half-life is 7.08 h and the Vd came to 42.3 L/kg. In addition, the bioavailability in data set [1] stood at 31.8%. Further, in data set [1] (PO, 10.0 mg/kg), the AUC(0-t) stood at 1.1 µM·h, the Cmax turned out to be 80 nM, the Tmax was 2 h and the half-life was 5.56 h. Further, the IC50 in data set [2] (MCF7, 120 h) was at most 25 nM.

As for `CCCN1CC[C@H](Nc2ccc([C@@H]3c4[nH]c5ccccc5c4C[C@@H](C)N3C34CC(C3)C4)cc2)C1` [Compound 72, (S)—N-(4-((1R,3R)-2-(bicyclo[1.1.1]pentan-1-yl)-3-methyl-2,3,4,9-tetrahydro-1H-pyrido[3,4-b]indol-1-yl)phenyl)-1-propylpyrrolidin-3-amine], in data set [1], the Kp at 2 h worked out at 8.82 and the bioavailability was 51.5%. In data set [1] (IV, 3.0 mg/kg), the AUC(0-t) stood at 2.17 µM·h. Besides, in data set [1] (PO, 10.0 mg/kg), the AUC(0-t) is 3.73 µM·h, the concentration peaked (Cmax) at 240 nM and the Tmax was determined as 4 h. The IC50 in data set [2] (MCF7, 120 h) is at most 25 nM.

Regarding `C[C@@H]1Cc2c([nH]c3ccccc23)[C@@H](c2c(F)cc(O[C@H]3CCN(CCCF)C3)cc2F)N1C12CC(C1)C2` (single isomer, unassigned) [Compound 6], in data set [1], the Kp at 2 h worked out at 4.42 and the bioavailability is 49.5%. In data set [1] (IV, 3.0 mg/kg), the area under the curve AUC(0-t) amounted to 2.93 µM·h, the clearance was found to be 30.2 mL/min/kg, the half-life is 9.1 h and the Vd was found to be 16.7 L/kg. In data set [1] (PO, 10.0 mg/kg), the AUC(0-t) turned out to be 4.84 µM·h, the concentration peaked (Cmax) at 611 nM, the Tmax amounted to 1 h and the half-life was 9.4 h. The compound also displayed an IC50 in data set [2] (MCF7, 120 h) of at most 25 nM.

As for `CCCN1CC(Oc2ccc([C@@H]3c4[nH]c5ccccc5c4C[C@@H](C)N3C34CC(C3)C4)cc2)C1` [Compound 39, (1R,3R)-2-(bicyclo[1.1.1]pentan-1-yl)-3-methyl-1-(4-((1-propylazetidin-3-yl)oxy)phenyl)-2,3,4,9-tetrahydro-1H-pyrido[3,4-b]indole], in data set [1], the Kp at 2 h amounted to 11.4 and the bioavailability came to 29.6%. Further, in data set [1] (IV, 3.0 mg/kg), the exposure AUC(0-t) was determined as 1.33 µM·h, the clearance was determined as 85 mL/min/kg, the half-life is 5.13 h and the Vd was 16 L/kg. In addition, in data set [1] (PO, 10.0 mg/kg), the exposure AUC(0-t) was 1.31 µM·h, the highest concentration (Cmax) was determined as 224 nM, the Tmax came to 0.5 h and the half-life was 3.95 h. In data set [2] (MCF7, 120 h), this compound returned an IC50 of at most 25 nM.

Consider `C[C@@H]1Cc2c([nH]c3ccccc23)[C@@H](c2ccc(NC3CN(CCCF)C3)cc2F)N1C12CC(C1)C2` [Compound 15, N-(4-((1R,3R)-2-(bicyclo[1.1.1]pentan-1-yl)-3-methyl-2,3,4,9-tetrahydro-1H-pyrido[3,4-b]indol-1-yl)-3-fluorophenyl)-1-(3-fluoropropyl)azetidin-3-amine], for which, in data set [1], the Kp at 2 h amounted to 10.8 and the bioavailability was determined as 47.3%. In data set [1] (IV, 3.0 mg/kg), the exposure AUC(0-t) is 0.892 µM·h, the clearance came out at 100 mL/min/kg, the half-life is 10 h and the Vd worked out at 66.4 L/kg. Moreover, in data set [1] (PO, 10.0 mg/kg), the AUC(0-t) stood at 1.45 µM·h, the Cmax stood at 200 nM, the time to peak (Tmax) was 1 h and the half-life was 9.2 h. This compound came in with a half-maximal inhibitory concentration (IC50) in data set [2] (MCF7, 120 h) of at most 25 nM.
